“And” between values parts separate entries of the source, which are not always exact repeats. Equal entries are not always repeated. Inconclusive results and toxic doses are left out.
System: CD2F1 mice, L1210 leukemia ip, survival T/C
Experiment: NCI In Vivo Anticancer Drug Screen. Data for tumor model L1210 Leukemia (intraperitoneal) in CD2F1 (CDF1) mice
Conditions: higher = longer survival
How it was run: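 Activity against a transplanted murine tumor was judged by comparing the compound group with a vehicle group. The outcome in the treated animals was divided by that in the controls.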

CC1CC2(C)C(CC1=O)CC(C)C1C2CCC2(C)C1CCC2(C)O (stereo not drawn)
T/C (endpoint: mean survival time, dose: 100.0 mg/kg/injection, schedule: Q04DX003 (ip), vehicle: saline with Tween-80): 102 % of control | T/C (endpoint: mean survival time, dose: 200.0 mg/kg/injection, schedule: Q04DX003 (ip), vehicle: saline with Tween-80): 102 % of control | T/C (endpoint: mean survival time, dose: 400.0 mg/kg/injection, schedule: Q04DX003 (ip), vehicle: saline with Tween-80): 100 % of control

O=S1(=O)CS(=O)(=O)OCCO1
T/C (endpoint: median survival time, dose: 6.25 mg/kg/injection, schedule: Q01DX009 (oral), vehicle: Klucel (hydroxypropylcellulose) (HPC)): 112 % of control | T/C (endpoint: median survival time, dose: 12.5 mg/kg/injection, schedule: Q01DX001 (oral), vehicle: Klucel (hydroxypropylcellulose) (HPC)): 101 % of control | T/C (endpoint: median survival time, dose: 22.0 mg/kg/injection, schedule: Q06HX002 (oral), vehicle: Klucel (hydroxypropylcellulose) (HPC)): 113 % of control | T/C (endpoint: median survival time, dose: 25.0 mg/kg/injection, schedule: Q01DX001 (oral), vehicle: Klucel (hydroxypropylcellulose) (HPC)): 112 % of control | T/C (endpoint: median survival time, dose: 25.0 mg/kg/injection, schedule: Q01DX009 (oral), vehicle: Klucel (hydroxypropylcellulose) (HPC)): 213 % of control | T/C (endpoint: median survival time, dose: 33.0 mg/kg/injection, schedule: Q01DX001 (oral), vehicle: Klucel (hydroxypropylcellulose) (HPC)): 117 % of control | T/C (endpoint: median survival time, dose: 33.0 mg/kg/injection, schedule: Q01DX005 (oral), vehicle: Klucel (hydroxypropylcellulose) (HPC)): 103 % of control | T/C (endpoint: median survival time, dose: 33.0 mg/kg/injection, schedule: Q06HX002 (oral), vehicle: Klucel (hydroxypropylcellulose) (HPC)): 117 % of control | T/C (endpoint: median survival time, dose: 49.5 mg/kg/injection, schedule: Q01DX001 (oral), vehicle: Klucel (hydroxypropylcellulose) (HPC)): 123 % of control | T/C (endpoint: median survival time, dose: 50.0 mg/kg/injection, schedule: Q01DX001 (oral), vehicle: Klucel (hydroxypropylcellulose) (HPC)): 119 % of control | T/C (endpoint: median survival time, dose: 50.0 mg/kg/injection, schedule: Q01DX009 (oral), vehicle: Klucel (hydroxypropylcellulose) (HPC)): 178 % of control and 337 % of control | T/C (endpoint: median survival time, dose: 74.2 mg/kg/injection, schedule: Q01DX005 (oral), vehicle: Klucel (hydroxypropylcellulose) (HPC)): 185 % of control | T/C (endpoint: median survival time, dose: 100.0 mg/kg/injection, schedule: Q01DX001 (oral), vehicle: Klucel (hydroxypropylcellulose) (HPC)): 124 % of control | T/C (endpoint: median survival time, dose: 100.0 mg/kg/injection, schedule: Q01DX009 (oral), vehicle: Klucel (hydroxypropylcellulose) (HPC)): 238 % of control | T/C (endpoint: median survival time, dose: 111.2 mg/kg/injection, schedule: Q01DX005 (oral), vehicle: Klucel (hydroxypropylcellulose) (HPC)): 212 % of control | T/C (endpoint: median survival time, dose: 112.5 mg/kg/injection, schedule: Q01DX001 (oral), vehicle: Klucel (hydroxypropylcellulose) (HPC)): 235 % of control | T/C (endpoint: median survival time, dose: 166.8 mg/kg/injection, schedule: Q01DX001 (oral), vehicle: Klucel (hydroxypropylcellulose) (HPC)): 160 % of control | T/C (endpoint: median survival time, dose: 166.8 mg/kg/injection, schedule: Q01DX005 (oral), vehicle: Klucel (hydroxypropylcellulose) (HPC)): 272 % of control | T/C (endpoint: median survival time, dose: 200.0 mg/kg/injection, schedule: Q01DX001 (oral), vehicle: Klucel (hydroxypropylcellulose) (HPC)): 178 % of control | T/C (endpoint: median survival time, dose: 250.0 mg/kg/injection, schedule: Q01DX001 (oral), vehicle: Klucel (hydroxypropylcellulose) (HPC)): 225 % of control
